Values after ≈ are worked out from the molar mass of the structure shown.
Legend:
Format in all cases: cell-based
[1] = tested on: E. coli (American Type Culture Collection ATCC 25922); test: Minimum inhibitory concentration (MIC) test; conditions: E. coli ATCC 25922; 24 h culture
Experimental: (§1) The minimum inhibitory concentration (MIC) is the lowest concentration of antibacterial agents that can inhibit the visible growth of bacteria after 24 h culture in a specific environment. Methods for determining the minimum inhibitory concentration can be a constant broth dilution method, a trace broth dilution method, an agar dilution method or an E experiment.

S. aureas (ATCC 6538) = test: Minimum inhibitory concentration (MIC) test; conditions: 24 h culture
Experimental: as §1

E. coli = test: Durable antibacterial activity of glass surfaces modified by antibacterial agents (plate/colony counting method)
S. aureas = test: as above

SMILES	Minimum inhibitory concentration (MIC) [1] [mM]	Minimum inhibitory concentration (MIC) (S. aureas (ATCC 6538)) [mM]	Antibacterial activity of modified glass surface (plate counting method) (E. coli; wash number 0) [%]	Antibacterial activity of modified glass surface (plate counting method) (E. coli; wash number 10) [%]	Antibacterial activity of modified glass surface (plate counting method) (E. coli; wash number 50) [%]	Antibacterial activity of modified glass surface (plate counting method) (E. coli; wash number 100) [%]	Antibacterial activity of modified glass surface (plate counting method) (S. aureas; wash number 0) [%]	Antibacterial activity of modified glass surface (plate counting method) (S. aureas; wash number 10) [%]	Antibacterial activity of modified glass surface (plate counting method) (S. aureas; wash number 50) [%]	Antibacterial activity of modified glass surface (plate counting method) (S. aureas; wash number 100) [%]
CC[N+](CC)(CCCS(=O)(=O)[O-])CCOC(=O)Nc1ccc(Cc2ccc(N=C=O)cc2)cc1 [Example 2]	12 (≈ 5880 µg/mL)	10 (≈ 4900 µg/mL)	99.99	99.9	97.3	95.9	99.99	99.9	98.9	96.6
C[N+](C)(CCOC(=O)NCCCCCCN=C=O)CC(=O)[O-] [Example 3]	11 (≈ 3470 µg/mL)	8 (≈ 2520 µg/mL)	99.99	99.8	98.5	96.5	99.99	99.9	99.0	97.2
C[N+](C)(CCCS(=O)(=O)[O-])CCNC(=O)NC1CCC(CC2CCC(N=C=O)CC2)CC1 (stereo not drawn) [Example 5]	10 (≈ 4730 µg/mL)	7 (≈ 3310 µg/mL)	99.99	99.7	99.0	96.5	99.99	99.9	99.5	98.5
Cc1cc(NC(=O)NC2CC(C)(C)CC(C)(CN=C=O)C2)cc(C)[n+]1CCCS(=O)(=O)[O-] (stereo not drawn) [Example 9]	10 (≈ 4670 µg/mL)	8 (≈ 3730 µg/mL)	99.99	99.8	97.1	94.3	99.99	99.9	98.5	95.2
CC1(C)CC(NC(=O)OCC[N+](C)(C)CCS(=O)(=O)[O-])CC(C)(CN=C=O)C1 (stereo not drawn) [Example 10]	12 (≈ 5030 µg/mL)	9 (≈ 3780 µg/mL)	99.99	99.8	97.5	94.1	99.99	99.9	98.9	95.3
CC1(C)CC(NC(=O)OCC[N+](C)(C)CCCC(=O)[O-])CC(C)(CN=C=O)C1 (stereo not drawn) [Example 11]	10 (≈ 3980 µg/mL)	8 (≈ 3180 µg/mL)	99.99	99.8	97.1	94.5	99.99	99.9	98.3	95.8

From patent publication US11044908B2, “Reactive antibacterial compound and preparation method thereof” (SHENZHEN UNIVERSITY, priority 2015, dated 2021)
